Assay in all cases: in vivo carotenoid production in E. coli, HPLC-DAD and LC-MS
Holding throughout (format): cell-based

Assay [1] has as its target T1, tCYP97H1 (Euglena gracilis, UniProt A0A1Y1C5R9, F246A).
T1 construct: gene CYP97H1; plastid signal M1-L116 deleted; E. coli codon optimised; expressed in beta-carotene producing E. coli with Spinacia oleracea ferredoxin / ferredoxin reductase
Conditions: beta-carotene producing E. coli, S. oleracea ferredoxin / ferredoxin reductase co-expressed; product beta-cryptoxanthin.

For assay [2], the target named is T2, tCYP97H1 (Euglena gracilis, UniProt A0A1Y1C5R9, F242A).
T2 construct: gene CYP97H1; plastid signal M1-L116 deleted; E. coli codon optimised; expressed in beta-carotene producing E. coli with Spinacia oleracea ferredoxin / ferredoxin reductase
Particulars: beta-carotene producing E. coli, S. oleracea ferredoxin / ferredoxin reductase co-expressed; product beta-cryptoxanthin.

For assay [3], the target named is T3, tCYP97H1 (Euglena gracilis, UniProt A0A1Y1C5R9, F221A).
T3 construct: gene CYP97H1; plastid signal M1-L116 deleted; E. coli codon optimised; expressed in beta-carotene producing E. coli with Spinacia oleracea ferredoxin / ferredoxin reductase
Conditions: beta-carotene producing E. coli, S. oleracea ferredoxin / ferredoxin reductase co-expressed; product beta-cryptoxanthin.

The next assay has as its target T4, tCYP97A3At (Arabidopsis thaliana, UniProt Q93VK5).
T4 construct: gene CYP97A3; first 77 residues deleted, no MBP tag; expressed in beta-carotene producing E. coli with Spinacia oleracea ferredoxin / ferredoxin reductase
T4 sequence (Q93VK5 78-595): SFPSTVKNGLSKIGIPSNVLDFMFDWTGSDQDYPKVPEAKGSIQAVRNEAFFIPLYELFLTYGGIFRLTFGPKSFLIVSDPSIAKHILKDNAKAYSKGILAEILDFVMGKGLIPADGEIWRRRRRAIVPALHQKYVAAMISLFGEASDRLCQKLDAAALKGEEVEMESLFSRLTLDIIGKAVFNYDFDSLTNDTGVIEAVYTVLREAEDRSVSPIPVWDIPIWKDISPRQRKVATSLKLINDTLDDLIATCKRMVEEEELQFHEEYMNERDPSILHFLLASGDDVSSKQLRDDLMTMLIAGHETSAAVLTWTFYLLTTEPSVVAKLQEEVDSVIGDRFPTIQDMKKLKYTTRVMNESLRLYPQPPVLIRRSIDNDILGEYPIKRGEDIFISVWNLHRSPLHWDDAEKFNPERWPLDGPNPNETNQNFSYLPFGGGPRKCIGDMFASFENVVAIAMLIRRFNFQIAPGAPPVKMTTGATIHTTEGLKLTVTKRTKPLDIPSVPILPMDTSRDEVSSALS
Conditions: beta-carotene producing E. coli, S. oleracea ferredoxin / ferredoxin reductase co-expressed, product beta-cryptoxanthin.

Assay [4] has as its target T5, tCYP97H1 (Euglena gracilis, UniProt A0A1Y1C5R9).
T5 construct: gene CYP97H1; plastid signal M1-L116 deleted; E. coli codon optimised; expressed in beta-carotene producing E. coli with Spinacia oleracea ferredoxin / ferredoxin reductase
Conditions: beta-carotene producing E. coli, S. oleracea ferredoxin / ferredoxin reductase co-expressed, product beta-cryptoxanthin.

For assay [5], the target named is T6, tCYP97H1 (Euglena gracilis, UniProt A0A1Y1C5R9, F218A).
T6 construct: gene CYP97H1; plastid signal M1-L116 deleted; E. coli codon optimised; expressed in beta-carotene producing E. coli with Spinacia oleracea ferredoxin / ferredoxin reductase
Conditions: beta-carotene producing E. coli, S. oleracea ferredoxin / ferredoxin reductase co-expressed, product beta-cryptoxanthin.

Where [6] appears, read: beta-cryptoxanthin formed in situ, side product zeaxanthin.

Two compounds from article PMC9953315, “Cytochrome P450 Surface Domains Prevent the β-Carotene Monohydroxylase CYP97H1 of Euglena gracilis from Acting as a Dihydroxylase” (Biomolecules, 2023) can be followed below.

The structures appear in SMILES notation.

T5 sequence (A0A1Y1C5R9 entry or part of it): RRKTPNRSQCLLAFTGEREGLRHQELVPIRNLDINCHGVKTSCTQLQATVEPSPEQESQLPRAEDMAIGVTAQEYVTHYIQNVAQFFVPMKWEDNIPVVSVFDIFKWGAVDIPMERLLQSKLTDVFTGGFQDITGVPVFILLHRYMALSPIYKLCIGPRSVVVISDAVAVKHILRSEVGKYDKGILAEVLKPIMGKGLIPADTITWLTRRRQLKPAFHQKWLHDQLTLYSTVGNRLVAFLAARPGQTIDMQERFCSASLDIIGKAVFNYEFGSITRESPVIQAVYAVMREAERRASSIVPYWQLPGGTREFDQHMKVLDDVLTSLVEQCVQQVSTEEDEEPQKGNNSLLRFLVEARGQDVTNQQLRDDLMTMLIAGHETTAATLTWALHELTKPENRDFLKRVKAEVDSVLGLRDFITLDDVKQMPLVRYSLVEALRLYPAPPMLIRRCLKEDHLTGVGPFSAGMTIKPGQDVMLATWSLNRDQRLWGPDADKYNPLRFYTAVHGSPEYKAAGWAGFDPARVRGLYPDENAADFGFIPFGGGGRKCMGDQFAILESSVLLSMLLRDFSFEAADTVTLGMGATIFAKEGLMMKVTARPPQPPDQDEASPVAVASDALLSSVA
T6 sequence (A0A1Y1C5R9 entry or part of it F218A): as the sequence (A0A1Y1C5R9 entry or part of it) above, with F102A counted along it
T2 sequence (A0A1Y1C5R9 entry or part of it F242A): as the sequence (A0A1Y1C5R9 entry or part of it) above, with F126A counted along it
T1 sequence (A0A1Y1C5R9 entry or part of it F246A): as the sequence (A0A1Y1C5R9 entry or part of it) above, with F130A counted along it
T3 sequence (A0A1Y1C5R9 entry or part of it F221A): as the sequence (A0A1Y1C5R9 entry or part of it) above, with F105A counted along it

As to `CC1=C(/C=C/C(C)=C/C=C/C(C)=C/C=C/C=C(C)/C=C/C=C(C)/C=C/C2=C(C)CCCC2(C)C)C(C)(C)CCC1` [β-carotene], the “in vivo carotenoid production in E. coli, HPLC-DAD and LC-MS” value at tCYP97H1 [1] is recorded as “All these single mutants exhibited reduced β-cryptoxanthin production”; at tCYP97H1 [2], “All these single mutants exhibited reduced β-cryptoxanthin production”; at tCYP97H1 [3], “All these single mutants exhibited reduced β-cryptoxanthin production”; on tCYP97A3At it was “production of a small amount of hydroxylated β-carotene in vivo”; at tCYP97H1 [4], “the deletion of the plastid peptide signal from residue M1 to L116 improved activity”; on tCYP97H1 [5] it was “All these single mutants exhibited reduced β-cryptoxanthin production”.

Regarding `CC1=C(/C=C/C(C)=C/C=C/C(C)=C/C=C/C=C(C)/C=C/C=C(C)/C=C/C2=C(C)C[C@@H](O)CC2(C)C)C(C)(C)CCC1` [β-cryptoxanthin], the “in vivo carotenoid production in E. coli, HPLC-DAD and LC-MS” value on tCYP97A3At (beta-cryptoxanthin formed in situ, product zeaxanthin) was “β-cryptoxanthin and zeaxanthin detection were confirmed by mass spectrometry in the strain ETL154, expressing CYP97A3”; on tCYP97H1 [4] (setting [6]), “A small side production of zeaxanthin was detected with CYP97H1 and the F105A mutant”; at tCYP97H1 [5] (setting [6]), “the zeaxanthin:β-cryptoxanthin ratio was displaced in favour of zeaxanthin”.
